Holding throughout (format): physicochemical
The nature of data set [1]: pH measurement of PVA-borate hydrogels (spear-tip electrode). Particulars: 10% w/w PVA and 2.5% w/w borax hydrogel, n=4. The procedure: PVA-borate hydrogels (10% w/w PVA and 2.5% w/w borax) were prepared by combining equal volumes of separate stock solutions (20% w/w PVA and 5% w/w borax) prepared in de-ionised water. A homogenous gel was formed upon heating the mixture to 80° C. for approximately two hours, with periodic stirring. Gels were stored for 48 hours at room temperature to allow complete gelation prior to evaluation. Excipients, such as lidocaine HCL and D-mannitol, were added to the sodium tetraborate solution prior to addition to the PVA solution. The pH of gel formulations were recorded using a Sensorex® spear-tip electrode ([…], Sensys Ltd, Stevenage), which is designed to penetrate and measure the pH of semi-solid systems. Measurements of pH in borax solutions (5% w/v), following successive additions of D-mannitol (5.0×10^-3 mole), were recorded using the same electrode apparatus. Additionally, the effect of the polyols on the concentration of free borate ions within the hydrogel was estimated using changes in the pH of the gel after addition of a defined polyol. Standard hydrogels of 10% w/w PVA and 2.5% borax were produced containing each polyol at a concentration of 0.1 Molar. The pH of each gel was measured upon equilibration, with each measurement performed for four samples (n=4). Similarly, the changes in gel hardness arising from variations in free borate induced by polyol addition were determined using texture profile analysis, as described above. As before, four replicate measurements were made in each case at ambient temperature (n=4).

A short description of data set [2]: Texture profile analysis (hardness) of PVA-borate hydrogels. Conditions: for effect on hardness compared to the hydrogel containing no polyol: hydrogel loaded with 0.1 Molar polyol; for Hardness (N): 10% w/w PVA and 2.5% w/w borax hydrogel with 0.1 M polyol, n=4. Here is the method: Evaluation of the mechanical properties of PVA-borate hydrogels was performed using a TA-XT2 Texture Analyzer (Stable Micro Systems, […], UK) in texture profile analysis (TPA) mode. Formulations were placed in poly(propylene) containers (44 mm diameter×55 mm depth) (Sarstedt©, Wexford, Republic of Ireland) with any air bubbles in the gels removed upon standing at ambient temperature (>6.0 h) prior to investigation. The tubular probe (10.0 mm in diameter and 150.0 mm in length) was compressed twice into each sample to a depth of 15.0 mm at a rate of 10.0 mm s^-1, with a 15.0 s delay between compressions. Four replicate measurements were made in each case at ambient temperature. Hardness and compressibility, which have previously been used to define the mechanical properties of hydrogels were derived from the force-time plots produced by the TPA analysis^30. Those skilled in the art of TPA, will be familiar with production of said force-time plots and derivation of hardness and compressibility data from aforementioned data. Hardness, the force required to achieve a given deformation, was determined by the force maximum of the first positive curve of the force-time plot^30. Compressibility, the work required to deform the product during the first compression of the probe was determined by the area under the first positive curve of the force-time plot^30. Additionally, the effect of the polyols on the concentration of free borate ions within the hydrogel was estimated using changes in the pH of the gel after addition of a defined polyol. Standard hydrogels of 10% w/w PVA and 2.5% borax were produced containing each polyol at a concentration of 0.1 Molar. The pH of each gel was measured upon equilibration, with each measurement performed for four samples (n=4). Similarly, the changes in gel hardness arising from variations in free borate induced by polyol addition were determined using texture profile analysis, as described above. As before, four replicate measurements were made in each case at ambient temperature (n=4).

A short description of data set [3]: Comparison of polyol affinity for borate ions by direct titrimetry. Particulars: polyol added to 100.0 ml of 5% w/v Borax solution; calculated from pH with Equation 3. Here is the method:
The following polyols were used in this investigation; maltitol, dulcitol, D-mannitol, D-sorbitol, xylitol, meso-erythritol, 1,2-propanediol, glycerol. Additionally, the affect of propan-2-ol was also investigated. The affinity of each polyol for borate was estimated using direct titrimetry and by analysis of gel characteristics. In the former method, incremental additions (1.0 ml) of a 0.5 M solution of polyol was added to 100.0 ml of 5% w/v Borax solution and the pH recorded. […] 3; 10^(pH-pKa)[H3BO3]0═[B(OH)4^−]f (3) where, [H3BO3]0 is the concentration of boric acid, [B(OH)4^−]f is the concentration of free borate ions and pKa is the pKa of boric acid (derived from the initial pH of the 5% w/v borax solution). […] These assumptions are consistent with work of other researchers^27,28.

A short description of data set [4]: pHp of lidocaine hydrochloride within PVA-Borate hydrogels, derived experimentally. Here is the method:
[…]. The determination of the pHp in the aqueous environment is determined using the equation (1), whilst the determination of the pHp within the gel environment is derived experimentally. […].

Structures can show the parent of a compound that is named as a salt.

For `CC(C)O` [Propan-2-ol], the “pH of hydrogel with 0.1 M polyol” value in data set [1] was 8.393 +/− 0.012. Further, the “effect on hardness compared to the hydrogel containing no polyol” value in data set [2] is “no affect on the hardness of the hydrogel”. For the same molecule, the “% reduction in free borate/0.0005 moles” value in data set [3] is 0.51 ± 1.09%.
Consider `OC[C@@H](O)[C@@H](O)[C@H](O)[C@H](O)CO` [D-mannitol], for which the “pH of hydrogel with 0.1 M polyol” value in data set [1] was found to be 7.74 ± 0.023. Moreover, the “Hardness (N)” value in data set [2] came to 4.07 ± 0.25 N. Moreover, the “% reduction in free borate/0.0005 moles” value in data set [3] is given as 7.47 ± 1.10%.
In the case of `OCC(O)CO` [Glycerol], in data set [1], the “pH of hydrogel with 0.1 M polyol” value is listed as 8.17 +/− 0.022. For the same molecule, the “% reduction in free borate/0.0005 moles” value in data set [3] is 3.36 ± 1.34%.
Turning to `OC[C@@H](O)[C@@H](O)[C@H](O)[C@@H](O)CO` [D-sorbitol], the “pH of hydrogel with 0.1 M polyol” value in data set [1] was 7.79 ± 0.02. The “Hardness (N)” value in data set [2] is given as 4.37 ± 0.31 N. In data set [3], the “% reduction in free borate/0.0005 moles” value is reported as 6.87 ± 1.25%.
In the case of `CC(O)CO` (centres unmarked) [1,2-propandiol], in data set [1], the “pH of hydrogel with 0.1 M polyol” value stood at 8.39 ± 0.02. Moreover, in data set [2], the “Hardness (N)” value was 14.10 ± 0.5 N and the “effect on hardness compared to the hydrogel containing no polyol” value is listed as “no affect on the hardness of the hydrogel”. The “% reduction in free borate/0.0005 moles” value in data set [3] is on record as 2.08 ± 0.78%.
For the molecule `CCN(CC)CC(=O)Nc1c(C)cccc1C` [Lidocaine HCl, lidocaine hydrochloride], the “pHp (Gel)” value in data set [4] (1% w/v lidocaine HCl in PVA-Borate hydrogel) is on record as “≧8.15”; in data set [4] (2% w/v lidocaine HCl in PVA-Borate hydrogel), “≧7.75”; in data set [4] (3% w/v lidocaine HCl in PVA-Borate hydrogel), “≧7.45”; in data set [4] (4% w/v lidocaine HCl in PVA-Borate hydrogel, hydrochloride), “≧7.26”; in data set [4] (4% w/v lidocaine HCl in PVA-Borate hydrogel, listed as lidocaine hydrochloride monohydrate, hydrochloride) it was > 7.26.
Turning to `OC[C@@H](O)[C@@H](O)CO` [Meso-erythritol], the “pH of hydrogel with 0.1 M polyol” value in data set [1] is given as 8.10 ± 0.01. Moreover, the “Hardness (N)” value in data set [2] came to 9.01 ± 0.45 N. Further, in data set [3], the “% reduction in free borate/0.0005 moles” value is given as 4.97 ± 1.17%.
With Malititol, the “pH of hydrogel with 0.1 M polyol” value in data set [1] is listed as 7.63 ± 0.019. Besides, the “Hardness (N)” value in data set [2] came out at 2.79 ± 0.14 N. Also, the “% reduction in free borate/0.0005 moles” value in data set [3] is listed as 7.25 ± 1.59%.
The matching figures for `OC[C@@H](O)[C@H](O)[C@@H](O)CO` [Xylitol]: 7.95 ± 0.038, 5.18 ± 0.31 N and 4.97 ± 1.21%.
`OC[C@@H](O)[C@H](O)[C@H](O)[C@@H](O)CO` [Dulitol]: in data set [1], the “pH of hydrogel with 0.1 M polyol” value was 7.67 ± 0.015. For the same molecule, the “Hardness (N)” value in data set [2] is 3.87 ± 0.38 N. Besides, the “% reduction in free borate/0.0005 moles” value in data set [3] is listed as 7.46 ± 1.41%.

Values taken from patent US9272038B2, “Wound care formulation” (Innovation Ulster Limited, priority 2007, dated 2016).
